Reference: US11053218B2, “3-(1-oxoisoindolin-2-yl)piperidine-2,6-dione derivatives and uses thereof” (Novartis AG, priority 2017, dated 2021)
Entries after “also recorded” stand apart in the source; their conditions may differ. Like-named read-outs stand apart in the source and are kept apart here.

Key:
Format in all cases: cell-based
[1] = molecular target: IKZF2 (Homo sapiens, UniProt Q96SW2+Q9UKS7); assay: Prolabel quantification of IKZF2 protein levels in 293GT cells; conditions: for inhibition at 10 µM: 24 h, read-out: IKZF2 % protein reduction at 10 μM, 24 h; for DC50: Prolabel assay, read-out: IKZF2 EC50
[2] = molecular target: IKZF1 (Homo sapiens, UniProt Q13422+Q96SW2); assay: Prolabel quantification of IKZF1 protein levels in 293GT cells; conditions: Prolabel assay, read-out: IKZF1 EC50
[3] = molecular target: GSPT1 (Homo sapiens, UniProt P15170+Q96SW2); assay: Prolabel quantification of GSPT1 protein levels in 293GT cells; conditions: Prolabel assay, read-out: GSPT1 EC50
[4] = tested on: primary human regulatory T cells; assay: Expansion of purified primary human Treg cells in the presence of compound; conditions: FIG. 1
Procedure: (§1) Human buffy coats were obtained from BioreclamationIVT, in the USA. CD4+ T cells were isolated from said buffy coats using the RosetteSep Human CD4+ T cell enrichment Cocktail (Stemcell technologies, USA) and gradient centrifugation over Ficoll Paque Plus (GE HealthCare LifeSciences, USA) as per manufacturer's recommendations. Cells were resuspended in RPMI medium supplemented with 1% penicillin-Streptomycin solution, 10% Fetal Bovine Serum, HEPES (10 mM), MEM NEAA ([…]), sodium pyruvate (1 mM) (all supplements from Thermo Fisher Scientific, USA), thereafter referred to as complete RPMI (cRPMI), and rested overnight at 37° C., 5% CO2 in the presence of 2 U/mL rhIL-2 (Proleukin, Novartis). Cells were collected and resuspended in autoMACS Running Buffer supplemented with BSA (Miltenyi Biotec, USA) and labelled using CD4-FITC antibody (clone RPA-T4), CD25-APC antibody (clone M-A251) (Biolegend) and CD25 Microbeads (Miltenyi Biotec, USA). CD25-enriched cells were then isolated using the autoMACS Pro Separator. A highly purified population of Treg cells was then obtained by further sorting CD4+CD25Hi cells using a Sony SH800 cell sorter. The resulting Treg cell population was routinely above 90% pure according to FOXP3 expression. […]
Cell were collected and counted and the fold expansion was calculated as (number of cells recovered)/(number of cells plated). […]

[5] = tested on: primary human regulatory T cells
[6] = tested on: primary human regulatory T cells; assay: In vitro suppression of the proliferation of CD4+ T cells by expanded Treg cells; conditions: five independent donors, vs DMSO, FIG. 3
Procedure: as §1, with “Separator.” for “Separator. A highly purified population of Treg cells was then obtained by further sorting CD4+CD25Hi cells using a Sony SH800 cell sorter. The resulting Treg cell population was routinely above 90% pure according to FOXP3 expression.”
Primary human PBMCs were obtained from freshly prepared buffy coats (BioReclamationIVT) using gradient centrifugation over Ficoll Paque Plus as per manufacturer's recommendations. […] Proliferation was assessed in each population as the proportion of cells having diluted CFSE. Suppression was assessed for each condition in comparison to the responders plated alone.

Chain of GSPT1 (P15170 whole entry): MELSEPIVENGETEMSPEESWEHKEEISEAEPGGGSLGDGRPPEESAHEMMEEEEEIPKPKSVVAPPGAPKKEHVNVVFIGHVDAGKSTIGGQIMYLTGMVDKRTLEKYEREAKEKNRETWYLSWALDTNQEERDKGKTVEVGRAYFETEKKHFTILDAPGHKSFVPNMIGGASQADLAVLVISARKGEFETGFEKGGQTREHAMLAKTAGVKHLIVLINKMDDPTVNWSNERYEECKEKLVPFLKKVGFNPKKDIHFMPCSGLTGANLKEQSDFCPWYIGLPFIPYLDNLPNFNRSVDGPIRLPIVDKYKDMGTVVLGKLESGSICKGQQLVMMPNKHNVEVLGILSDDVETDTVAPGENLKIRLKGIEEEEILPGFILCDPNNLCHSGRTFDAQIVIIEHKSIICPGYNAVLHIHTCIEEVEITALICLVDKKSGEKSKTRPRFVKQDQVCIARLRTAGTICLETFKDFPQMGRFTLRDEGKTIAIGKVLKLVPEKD
Chain of GSPT1 (Q96SW2 whole entry): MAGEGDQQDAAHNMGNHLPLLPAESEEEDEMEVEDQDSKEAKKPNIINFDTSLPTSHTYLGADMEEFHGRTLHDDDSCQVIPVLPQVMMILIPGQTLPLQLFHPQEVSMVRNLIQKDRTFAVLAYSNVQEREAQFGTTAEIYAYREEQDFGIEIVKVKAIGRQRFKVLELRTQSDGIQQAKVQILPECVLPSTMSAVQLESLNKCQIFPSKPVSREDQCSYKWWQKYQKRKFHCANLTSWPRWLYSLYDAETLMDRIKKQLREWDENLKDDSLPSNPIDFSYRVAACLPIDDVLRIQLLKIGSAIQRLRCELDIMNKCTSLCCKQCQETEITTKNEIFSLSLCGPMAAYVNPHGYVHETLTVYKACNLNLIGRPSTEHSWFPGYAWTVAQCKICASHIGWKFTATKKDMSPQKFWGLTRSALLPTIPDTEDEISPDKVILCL
Chain of GSPT1 (Q16531 whole entry partner): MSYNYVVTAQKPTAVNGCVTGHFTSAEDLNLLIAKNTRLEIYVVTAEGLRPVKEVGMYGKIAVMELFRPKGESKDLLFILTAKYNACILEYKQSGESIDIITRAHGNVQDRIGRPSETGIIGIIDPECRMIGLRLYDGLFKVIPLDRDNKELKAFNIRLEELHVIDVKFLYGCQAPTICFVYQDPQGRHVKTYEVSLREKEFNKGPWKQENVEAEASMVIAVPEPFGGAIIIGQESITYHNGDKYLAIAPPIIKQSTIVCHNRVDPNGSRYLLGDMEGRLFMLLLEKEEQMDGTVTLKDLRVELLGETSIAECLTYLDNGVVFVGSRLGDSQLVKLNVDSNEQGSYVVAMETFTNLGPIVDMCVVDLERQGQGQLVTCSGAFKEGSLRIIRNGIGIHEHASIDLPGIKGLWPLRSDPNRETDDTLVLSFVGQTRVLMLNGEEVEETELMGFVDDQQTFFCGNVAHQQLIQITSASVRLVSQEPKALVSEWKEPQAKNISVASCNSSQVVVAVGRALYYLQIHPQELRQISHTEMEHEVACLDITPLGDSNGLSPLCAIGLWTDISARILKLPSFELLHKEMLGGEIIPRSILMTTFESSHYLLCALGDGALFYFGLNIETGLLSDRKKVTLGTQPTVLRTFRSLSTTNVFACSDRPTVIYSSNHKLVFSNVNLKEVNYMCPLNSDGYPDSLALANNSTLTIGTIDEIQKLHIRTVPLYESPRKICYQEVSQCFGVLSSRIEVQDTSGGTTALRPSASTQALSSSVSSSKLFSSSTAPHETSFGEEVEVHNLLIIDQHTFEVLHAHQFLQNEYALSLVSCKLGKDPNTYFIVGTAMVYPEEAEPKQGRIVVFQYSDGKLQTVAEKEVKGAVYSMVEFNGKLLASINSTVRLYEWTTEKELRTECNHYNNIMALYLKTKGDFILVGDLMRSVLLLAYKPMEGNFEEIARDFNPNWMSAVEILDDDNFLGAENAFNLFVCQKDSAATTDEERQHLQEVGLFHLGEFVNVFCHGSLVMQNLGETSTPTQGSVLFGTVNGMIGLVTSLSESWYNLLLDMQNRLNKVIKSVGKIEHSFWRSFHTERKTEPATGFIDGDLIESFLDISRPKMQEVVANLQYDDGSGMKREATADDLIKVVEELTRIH
Chain of IKZF1 (Q13422 whole entry): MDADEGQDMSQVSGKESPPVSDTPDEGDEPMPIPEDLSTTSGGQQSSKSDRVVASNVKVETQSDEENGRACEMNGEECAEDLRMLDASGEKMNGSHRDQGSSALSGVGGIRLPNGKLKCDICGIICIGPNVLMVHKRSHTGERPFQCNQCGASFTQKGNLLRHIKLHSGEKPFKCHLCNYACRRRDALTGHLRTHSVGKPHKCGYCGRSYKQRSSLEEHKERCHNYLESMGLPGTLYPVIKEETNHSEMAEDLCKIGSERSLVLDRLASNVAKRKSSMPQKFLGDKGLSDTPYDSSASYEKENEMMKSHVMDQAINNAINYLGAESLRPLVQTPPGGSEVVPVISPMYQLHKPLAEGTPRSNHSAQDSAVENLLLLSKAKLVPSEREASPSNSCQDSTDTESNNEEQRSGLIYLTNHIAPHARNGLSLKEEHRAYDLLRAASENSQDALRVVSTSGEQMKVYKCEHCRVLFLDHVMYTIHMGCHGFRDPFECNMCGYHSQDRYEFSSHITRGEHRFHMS
Chain of IKZF1 (Q96SW2 whole entry): as the sequence (Q96SW2 whole entry) above
Chain of IKZF1 (Q16531 whole entry partner): as the sequence (Q16531 whole entry partner) above
Chain of IKZF2 (Q9UKS7 whole entry): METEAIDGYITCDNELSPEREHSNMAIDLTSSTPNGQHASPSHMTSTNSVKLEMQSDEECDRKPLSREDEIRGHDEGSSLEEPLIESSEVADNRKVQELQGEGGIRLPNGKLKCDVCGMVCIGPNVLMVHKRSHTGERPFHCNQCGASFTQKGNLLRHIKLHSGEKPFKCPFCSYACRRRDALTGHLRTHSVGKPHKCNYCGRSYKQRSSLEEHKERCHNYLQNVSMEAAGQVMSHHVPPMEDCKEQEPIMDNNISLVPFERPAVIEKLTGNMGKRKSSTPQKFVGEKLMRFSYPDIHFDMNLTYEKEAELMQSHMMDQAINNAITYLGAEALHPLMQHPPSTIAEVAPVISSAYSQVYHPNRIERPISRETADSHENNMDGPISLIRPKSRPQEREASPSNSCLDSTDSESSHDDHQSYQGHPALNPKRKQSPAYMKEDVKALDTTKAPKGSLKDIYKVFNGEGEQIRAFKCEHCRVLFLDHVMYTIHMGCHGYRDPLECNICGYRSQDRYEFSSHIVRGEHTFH
Chain of IKZF2 (Q96SW2 whole entry): as the sequence (Q96SW2 whole entry) above
Chain of IKZF2 (Q16531 whole entry partner): as the sequence (Q16531 whole entry partner) above

O=C1CCC(N2Cc3cc(C4CCN(Cc5ccccc5)CC4)ccc3C2=O)C(=O)N1 (centres unmarked) [Compound I-57, 3-(5-(1-benzylpiperidin-4-yl)-1-oxoisoindolin-2-yl)piperidine-2,6-dione]
IKZF2 protein levels as compared to the control (DMSO) [1]: decreased | inhibition at 10 µM [1]: 70% | DC50 ([1]; 293GT cells): 0.009 µM | DC50 [2]: > 50 µM | DC50 [3]: > 50 µM | Treg cells expand less in the presence of compound ([4]; expanded in vitro 12 days, vs DMSO, compound 10 μM): 30% | Expansion of purified Treg cells as compared to the control ([4]; purified primary human Treg cells, DMSO control): impaired | Increase of the proportion of cells producing IL-2 (median) [5]: 2.16 fold | In vitro suppression of the proliferation of CD4+ T cells by expanded Treg cells [6]: impaired; also recorded: less able to repress

O=C1CCC(N2Cc3cc(C4CCN(Cc5ccnc6ccccc56)CC4)ccc3C2=O)C(=O)N1 (centres unmarked) [Compound I-214, 3-(1-oxo-5-(1-(quinolin-4-ylmethyl)piperidin-4-yl)isoindolin-2-yl)piperidine-2,6-dione]
inhibition at 10 µM ([1]; 10 μM, 293GT cells): 70% | DC50 ([1]; 293GT cells): 0.019 µM | DC50 [2]: > 50 µM | DC50 [3]: > 30 µM

CN(C)S(=O)(=O)c1cccc(CN2CCC(c3ccc4c(c3)CN(C3CCC(=O)NC3=O)C4=O)CC2)c1 (centres unmarked) [Compound I-216, 3-((4-(2-(2,6-dioxopiperidin-3-yl)-1-oxoisoindolin-5-yl)piperidin-1-yl)methyl)-N,N-dimethylbenzenesulfonamide]
inhibition at 10 µM ([1]; 10 μM, 293GT cells): 80% | DC50 ([1]; 293GT cells): 0.01 µM | DC50 [2]: 0.22 µM | DC50 [3]: > 30 µM

Cc1ccc2sc(-c3ccc(CN4CCC(c5ccc6c(c5)CN(C5CCC(=O)NC5=O)C6=O)CC4)cc3)nc2c1 (centres unmarked) [Compound I-225, 3-(5-(1-(4-(5-methylbenzo[d]thiazo1-2-yl)benzyl)piperidin-4-yl)-1-oxoisoindolin-2-yl)piperidine-2,6-dione]
inhibition at 10 µM ([1]; 10 μM, 293GT cells): 65% | DC50 ([1]; 293GT cells): 0.12 µM | DC50 [2]: > 30 µM | DC50 [3]: > 30 µM

O=C1CCC(N2Cc3cc(C4CCN(Cc5ccc6ccc(F)cc6n5)CC4)ccc3C2=O)C(=O)N1 (centres unmarked) [Compound I-232, 3-(5-(1-((7-fluoroquinolin-2-yl)methyl)piperidin-4-yl)-1-oxoisoindolin-2-yl)piperidine-2,6-dione]
inhibition at 10 µM ([1]; 10 μM, 293GT cells): 70% | DC50 ([1]; 293GT cells): 0.018 µM | DC50 [2]: > 30 µM | DC50 [3]: > 30 µM

CN(C)S(=O)(=O)c1ccc(CN2CCC(c3ccc4c(c3)CN(C3CCC(=O)NC3=O)C4=O)CC2)cc1 (centres unmarked) [Compound I-237, 4-((4-(2-(2,6-dioxopiperidin-3-yl)-1-oxoisoindolin-5-yl)piperidin-1-yl)methyl)-N,N-dimethylbenzenesulfonamide]
inhibition at 10 µM ([1]; 10 μM, 293GT cells): 70% | DC50 ([1]; 293GT cells): 0.02 µM | DC50 [2]: > 30 µM | DC50 [3]: > 30 µM

O=C1CCC(N2Cc3cc(C4CCN(Cc5ccc6nccnc6c5)CC4)ccc3C2=O)C(=O)N1 (centres unmarked) [Compound I-239, 3-(1-oxo-5-(1-(quinoxalin-6-ylmethyl)piperidin-4-yl)isoindolin-2-yl)piperidine-2,6-dione]
inhibition at 10 µM ([1]; 10 μM, 293GT cells): 70% | DC50 ([1]; 293GT cells): 0.007 µM | DC50 [2]: > 30 µM | DC50 [3]: > 30 µM

Cc1onc(-c2ccccc2)c1CN1CCC(c2ccc3c(c2)CN(C2CCC(=O)NC2=O)C3=O)CC1 (centres unmarked) [Compound I-251, 3-(5-(1-((5-methyl-3-phenylisoxazol-4-yl)methyl)piperidin-4-yl)-1-oxoisoindolin-2-yl)piperidine-2,6-dione]
inhibition at 10 µM ([1]; 10 μM, 293GT cells): 60% | DC50 ([1]; 293GT cells): 0.021 µM | DC50 [2]: > 30 µM | DC50 [3]: > 30 µM

O=C1CCC(N2Cc3cc(C4CCN(CC(F)(F)F)CC4)ccc3C2=O)C(=O)N1 (centres unmarked) [Compound I-253, 3-(1-oxo-5-(1-(2,2,2-trifluoroethyl)piperidin-4-yl)isoindolin-2-yl)piperidine-2,6-dione]
inhibition at 10 µM ([1]; 10 μM, 293GT cells): 0% | DC50 ([1]; 293GT cells): > 50 µM | DC50 [2]: > 50 µM | DC50 [3]: > 50 µM
